This is an account of results in PMC4860574, “Bafetinib (INNO-406) reverses multidrug resistance by inhibiting the efflux function of ABCB1 and ABCG2 transporters” (Scientific Reports, 2016).

The target of one assay is T1, ABCG2 (Homo sapiens, UniProt Q9UNQ0).
T1 construct: cell assays in NCI-H460/MX20 and HEK/ABCG2-R482
T1 sequence (Q9UNQ0 1-655): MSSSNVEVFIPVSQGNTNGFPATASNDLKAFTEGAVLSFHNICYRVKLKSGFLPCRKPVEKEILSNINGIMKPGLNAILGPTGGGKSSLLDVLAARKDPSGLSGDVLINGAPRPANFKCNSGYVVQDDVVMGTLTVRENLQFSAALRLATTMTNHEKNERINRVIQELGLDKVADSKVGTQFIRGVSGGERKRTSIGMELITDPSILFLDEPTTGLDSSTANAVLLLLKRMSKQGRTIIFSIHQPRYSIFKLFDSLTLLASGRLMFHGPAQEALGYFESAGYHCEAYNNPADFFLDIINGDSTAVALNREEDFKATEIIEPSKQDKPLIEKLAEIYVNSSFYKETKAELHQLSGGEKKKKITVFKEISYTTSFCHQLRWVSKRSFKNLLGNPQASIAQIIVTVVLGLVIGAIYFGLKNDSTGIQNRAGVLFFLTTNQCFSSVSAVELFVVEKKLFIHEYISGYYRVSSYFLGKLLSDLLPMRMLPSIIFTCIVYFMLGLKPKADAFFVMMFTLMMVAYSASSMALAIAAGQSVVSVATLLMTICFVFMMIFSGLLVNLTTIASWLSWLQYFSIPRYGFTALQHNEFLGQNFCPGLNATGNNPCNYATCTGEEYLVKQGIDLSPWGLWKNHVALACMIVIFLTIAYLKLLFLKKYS
The experiment in a line: inhibition of vanadate-sensitive ATPase activity in ABCG2 membranes. The format is biochemical. To be noted: read-out: concentration required to obtain 50% of maximal inhibition. An excerpt:
inhibition of vanadate-sensitive ATPase activity in ABCG2 membranes on ABCG2 | bafetinib inhibited the ATPase activity of ABCG2 in a concentration-dependent manner

Another assay has as its target T2, ABCB1 (Homo sapiens, UniProt P08183).
T2 construct: full length, wild type; cell assays in SW620/Ad300 and HEK/ABCB1
Nature of the assay: stimulation of vanadate-sensitive ATPase activity in ABCB1 membranes. The format is biochemical. To be noted: read-out: concentration required to obtain 50% of maximal stimulation.

T2 sequence (P08183 whole entry): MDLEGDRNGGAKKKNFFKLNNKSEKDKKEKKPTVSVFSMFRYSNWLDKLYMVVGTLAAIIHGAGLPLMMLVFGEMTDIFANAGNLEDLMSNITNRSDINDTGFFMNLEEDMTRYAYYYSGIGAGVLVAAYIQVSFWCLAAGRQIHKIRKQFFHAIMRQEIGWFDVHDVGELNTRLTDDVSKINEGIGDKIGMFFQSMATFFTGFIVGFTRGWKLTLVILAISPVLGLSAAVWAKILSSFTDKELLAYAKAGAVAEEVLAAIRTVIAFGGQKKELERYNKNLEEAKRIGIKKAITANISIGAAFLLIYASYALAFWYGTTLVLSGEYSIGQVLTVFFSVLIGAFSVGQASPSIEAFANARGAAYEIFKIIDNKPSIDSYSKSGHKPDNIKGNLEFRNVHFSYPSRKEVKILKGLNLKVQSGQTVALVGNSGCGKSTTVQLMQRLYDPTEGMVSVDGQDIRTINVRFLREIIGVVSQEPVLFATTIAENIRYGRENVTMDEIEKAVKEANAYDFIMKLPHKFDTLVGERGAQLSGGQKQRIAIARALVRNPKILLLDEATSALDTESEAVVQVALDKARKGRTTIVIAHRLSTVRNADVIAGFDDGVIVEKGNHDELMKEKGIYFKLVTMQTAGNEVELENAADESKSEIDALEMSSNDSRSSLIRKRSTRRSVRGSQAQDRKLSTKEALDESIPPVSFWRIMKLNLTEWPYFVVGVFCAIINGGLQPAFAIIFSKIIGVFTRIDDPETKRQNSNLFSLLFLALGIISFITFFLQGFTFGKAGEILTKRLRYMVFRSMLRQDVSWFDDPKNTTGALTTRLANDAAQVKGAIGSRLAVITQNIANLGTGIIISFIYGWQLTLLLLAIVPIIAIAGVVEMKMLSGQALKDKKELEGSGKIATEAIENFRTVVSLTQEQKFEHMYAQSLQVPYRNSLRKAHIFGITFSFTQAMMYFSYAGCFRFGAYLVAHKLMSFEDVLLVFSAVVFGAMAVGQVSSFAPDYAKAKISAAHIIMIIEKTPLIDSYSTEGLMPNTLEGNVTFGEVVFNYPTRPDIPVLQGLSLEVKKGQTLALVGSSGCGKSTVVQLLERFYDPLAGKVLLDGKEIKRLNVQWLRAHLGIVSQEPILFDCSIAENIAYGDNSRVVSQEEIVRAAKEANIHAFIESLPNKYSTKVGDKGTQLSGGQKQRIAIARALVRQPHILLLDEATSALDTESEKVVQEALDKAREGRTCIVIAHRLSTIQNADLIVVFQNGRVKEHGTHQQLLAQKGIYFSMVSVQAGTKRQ

Consider `Cc1ccc(NC(=O)c2ccc(CN3CC[C@H](N(C)C)C3)c(C(F)(F)F)c2)cc1Nc1nccc(-c2cncnc2)n1` [bafetinib], for which the IC50 on ABCG2 stood at 2970 nM. Further, the EC50 at ABCB1 was 640 nM.
